Consider seven molecules from US10570151B2, “Biologically active molecules, conjugates thereof, and therapeutic uses” (priority 2013, dated 2020).

Format in all cases: cell-based
In assay [1] the test system is C4-2 cells (prostate cancer line). Put plainly: In vitro cytotoxicity (cell viability, CCK8) in C4-2 cells. The following applies: C4-2, unconjugated (Table 2, FIG. 8). How it is done: (§1) Cells were seeded in PDL-coated 96 well plates at 375 (MMT/hEGFRvIII), 1500 (U251/hEGFRvIII), 2000 (HEK293/hEGFRvIII), or 3000 (C4-2, PC3/hSTEAP1, T47D, and U87-MG) cells per well in complete growth media and grown overnight. For cell viability curves, serially diluted conjugates or free representative payloads were added to the cells at final concentrations ranging from 500 nM to 1 pM and incubated for 3 days. To measure viability in MMT/hEGFRvIII, U251/hEGFRvIII, HEK293/hEGFRvIII, C4-2, PC3/hSTEAP1, and U87-MG, cells were incubated with CCK8 (Dojindo) for the final 1-3 hours and the absorbance at 450 nm (OD450) was determined on a Flexstation3 (Molecular Devices). To measure viability in T47D, cells were incubated on ice for 30 min in 4% formaldehye+3 ug/ml Hoechst. Images of Hoechst stained nuclei were acquired on the ImageXpress Micro XL (Molecular Devices) and nuclear counts were determined with the Columbus analysis software (PerkinElmer). Background OD450 levels (CCK8) or nuclear counts from digitonin ([…]) treated cells were subtracted from all wells and viability is expressed as a percentage of the untreated controls. IC50 values were determined from a four-parameter logistic equation over a 10-point response curve (GraphPad Prism). All curves and IC50 values are corrected for payload equivalents.

For the next assay, the system named is HEK293 cells. As to the kind of experiment: Anti-proliferation activity of unconjugated compounds in HEK293. The following applies: Homo sapiens. How it is done:
as §1
(§2) In a separate set of experiments, compound 6, along with amino analogs 27, 29, and 31 were assayed in HEK293 and U87MG for anti-proliferation activity (FIG. 7). […] (For these experiments, background correction with digitonin was not performed).
(§3) In yet another set of experiments, compounds 6, 9, 33, and 35 were assayed in HEK293, U251, C4-2, PC3, and MMT for anti-proliferation activity (FIG. 8). The trend in potency follows 9>33>35>6 and is consistent for the 5 cell lines assayed.

The subject of a further assay is U87MG cells. As to the kind of experiment: Anti-proliferation activity of unconjugated compounds in U87MG. The following applies: Homo sapiens, U-87 MG, background correction with digitonin not performed (FIG. 7). How it is done: as §1, §2
The next assay deals with U251 cells. As to the kind of experiment: Anti-proliferation activity of unconjugated compounds in U251. The following applies: Homo sapiens, U-251; U251, unconjugated (Table 2, FIG. 8). The protocol: as §1, §3
For another assay, the system named is PC3 cells. As to the kind of experiment: Anti-proliferation activity of unconjugated compounds in PC3. The following applies: Homo sapiens, PC-3; PC3, unconjugated (Table 2, FIG. 8). How it is done: as §1, §3
Another assay deals with MMT cells. As to the kind of experiment: Anti-proliferation activity of unconjugated compounds in MMT. The following applies: unconjugated (Table 2, FIG. 8). How it is done: as §1, §3
The mark [2] stands for this setting: HEK293, unconjugated (Table 2, FIG. 8), read-out: IC50 (nM) HEK293.
The mark [3] stands for this setting: HEK293, unconjugated, background correction with digitonin not performed (FIG. 7), read-out: IC50.

Like-named read-outs stand apart in the source and are kept apart here.

What is called IC50 is the concentration that inhibits the measured activity by half. Turning to `CNCCC(=O)N(C)[C@@H](C)C(=O)O[C@H]1CC(=O)N(C)c2cc(cc(OC)c2Cl)C/C(C)=C/C=C/[C@@H](OC)[C@@]2(O)C[C@H](OC(=O)N2)[C@@H](C)[C@@H]2O[C@@]12C` [Compound 6], the IC50 in assay [1] is 200 nM; with HEK293 cells (setting [2]), 200 nM; in the assay on HEK293 cells (setting [3]), greater than 30 nM; in the assay on U87MG cells, greater than 30 nM; with U251 cells it was 150 nM; in the assay on PC3 cells, 250 nM. In the assay with MMT cells, this molecule came in with an IC50 of 250 nM.
As for `COc1cc2cc(c1Cl)N(C)C(=O)C[C@H](OC(=O)[C@H](C)N(C)C(=O)CCSSC)[C@]1(C)O[C@H]1[C@H](C)[C@@H]1C[C@@](O)(NC(=O)O1)[C@H](OC)/C=C/C=C(\C)C2` [Compound 9, Maytansin-3-N-methyl-L-(S)-alanine-propanamidyl-3-methyldisulfide], the IC50 in assay [1] was determined as 1.5 nM; in the assay with HEK293 cells (setting [2]), 0.2 nM; in the assay on U251 cells it was 0.4 nM; in the assay with PC3 cells, 0.4 nM; with MMT cells, 0.3 nM.
Regarding `COc1cc2cc(c1Cl)N(C)C(=O)C[C@H](OC(=O)[C@H](C)N(C)C(=O)CCN)[C@]1(C)O[C@H]1[C@H](C)[C@@H]1C[C@@](O)(NC(=O)O1)[C@H](OC)/C=C/C=C(\C)C2` [Compound 27, Maytansin-3-N-methyl-L-(S)-alanine-β-alanine], the IC50 in the assay with HEK293 cells (setting [3]) and in the assay on U87MG cells was greater than 30 nM each time.
On to `COc1cc2cc(c1Cl)N(C)C(=O)C[C@H](OC(=O)[C@H](C)N(C)C(=O)CCCN)[C@]1(C)O[C@H]1[C@H](C)[C@@H]1C[C@@](O)(NC(=O)O1)[C@H](OC)/C=C/C=C(\C)C2` [Compound 29, Maytansin-3-N-methyl-L-(S)-alanine-γ-aminobutyramide], for which the IC50 in the assay with HEK293 cells (setting [3]) and in the assay on U87MG cells was greater than 30 nM each time.
Regarding `CNCCCC(=O)N(C)[C@@H](C)C(=O)O[C@H]1CC(=O)N(C)c2cc(cc(OC)c2Cl)C/C(C)=C/C=C/[C@@H](OC)[C@@]2(O)C[C@H](OC(=O)N2)[C@@H](C)[C@@H]2O[C@@]12C` [Compound 31, Maytansin-3-N-methyl-L-(8)-alanine-N-Me-γ-aminobutyramide], the IC50 in the assay on HEK293 cells (setting [3]) and in the assay on U87MG cells was greater than 30 nM throughout.
On to `COc1cc2cc(c1Cl)N(C)C(=O)C[C@H](OC(=O)[C@H](C)N(C)C(=O)c1ccc3c(c1)CCNC3)[C@]1(C)O[C@H]1[C@H](C)[C@@H]1C[C@@](O)(NC(=O)O1)[C@H](OC)/C=C/C=C(\C)C2` [Compound 33, Maytansin-3-N-methyl-L-N-alanine-N-carboxy-6-(1,2,3,4-tetrahydroisoquinoline)], for which the IC50 in assay [1] was 20 nM; with HEK293 cells (setting [2]), 20 nM; in the assay with U251 cells, 15 nM; with PC3 cells, 30 nM; in the assay on MMT cells it was 20 nM.
On to `COc1cc2cc(c1Cl)N(C)C(=O)C[C@H](OC(=O)[C@H](C)N(C)C(=O)C1CCNCC1)[C@]1(C)O[C@H]1[C@H](C)[C@@H]1C[C@@](O)(NC(=O)O1)[C@H](OC)/C=C/C=C(\C)C2` [Compound 35, Maytansin-3-N-methyl-L-(S)-alanine-N-carboxy-4-piperidine], for which the IC50 in assay [1] came to 55 nM; with HEK293 cells (setting [2]) it was 50 nM; in the assay on U251 cells, 25 nM; in the assay on PC3 cells, 65 nM; in the assay with MMT cells, 60 nM.
